# In patent US10925876B2, “Methods for using triazolo-pyrazinyl soluble guanylate cyclase activators in fibrotic disorders” (Merck Sharp & Dohme Corp., priority 2016, dated 2021):
# Molecular target: T1, sGC α1/β1 heterodimer (Homo sapiens, UniProt Q02108+Q02153)
# T1 construct: expressed in transfected cells
# T1 sequence (Q02108 1-690): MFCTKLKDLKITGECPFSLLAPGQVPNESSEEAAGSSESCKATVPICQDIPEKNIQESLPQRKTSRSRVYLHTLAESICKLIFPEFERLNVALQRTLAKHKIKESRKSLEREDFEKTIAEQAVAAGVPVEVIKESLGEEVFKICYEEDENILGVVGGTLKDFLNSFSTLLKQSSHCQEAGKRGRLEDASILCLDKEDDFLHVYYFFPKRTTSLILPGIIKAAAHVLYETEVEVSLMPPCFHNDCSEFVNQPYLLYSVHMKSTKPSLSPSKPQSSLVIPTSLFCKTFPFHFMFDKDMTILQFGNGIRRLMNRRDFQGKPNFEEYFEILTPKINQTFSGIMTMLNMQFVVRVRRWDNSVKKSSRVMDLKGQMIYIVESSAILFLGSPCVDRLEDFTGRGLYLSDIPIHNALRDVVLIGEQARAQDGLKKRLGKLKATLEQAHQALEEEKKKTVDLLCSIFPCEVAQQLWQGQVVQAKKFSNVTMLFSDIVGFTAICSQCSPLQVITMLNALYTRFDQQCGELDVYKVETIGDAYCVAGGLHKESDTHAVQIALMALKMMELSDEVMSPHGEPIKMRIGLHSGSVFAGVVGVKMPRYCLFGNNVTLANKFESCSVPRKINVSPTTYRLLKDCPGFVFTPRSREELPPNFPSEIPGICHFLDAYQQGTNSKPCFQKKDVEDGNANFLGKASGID
# T1 sequence (Q02153 1-619): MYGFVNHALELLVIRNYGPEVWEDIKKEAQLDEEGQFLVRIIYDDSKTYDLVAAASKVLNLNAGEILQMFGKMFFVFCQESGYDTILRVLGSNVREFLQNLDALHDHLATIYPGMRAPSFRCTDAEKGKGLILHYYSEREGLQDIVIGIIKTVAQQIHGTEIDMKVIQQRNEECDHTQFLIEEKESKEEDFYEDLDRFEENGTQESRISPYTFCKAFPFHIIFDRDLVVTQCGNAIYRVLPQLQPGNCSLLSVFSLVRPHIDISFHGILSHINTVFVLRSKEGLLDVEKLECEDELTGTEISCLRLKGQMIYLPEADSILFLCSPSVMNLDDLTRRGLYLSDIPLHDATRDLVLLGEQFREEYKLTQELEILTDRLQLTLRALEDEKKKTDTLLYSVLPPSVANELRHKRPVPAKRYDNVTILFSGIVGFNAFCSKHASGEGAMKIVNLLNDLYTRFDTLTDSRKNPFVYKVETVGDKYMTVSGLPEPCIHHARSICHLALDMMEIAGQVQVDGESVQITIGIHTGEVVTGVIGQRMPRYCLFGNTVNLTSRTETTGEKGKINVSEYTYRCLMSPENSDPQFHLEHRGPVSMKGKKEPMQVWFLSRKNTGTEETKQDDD
# Assay: Cell-Based sGC Functional Assay (CASA Assay), cGMP generation in CHO-K1/sGC cells
# Details: maximum cGMP production of Compound A set to 100% activation, read-out: % Act. (percent activation relative to Compound A)
# Source text: sGC is a heme-containing enzyme that converts GTP to secondary messenger cGMP. Increases in cGMP levels affect several physiological processes including vasorelaxation through multiple downstream pathways. […] Heme-dependent activators (HDAs) preferentially activate sGC containing a ferrous heme group. To determine the effect of sGC activators on enzyme activity, the CASA assay was developed to monitor the generation of cGMP in a cell line that stably expresses the heterodimeric sGC protein.
# A CHO-K1 cell line stably expressing the sGC α1/β1 heterodimer was generated using a standard transfection protocol. CHO-K1 cells were transfected with plasmids pIREShyghsGCα1 and pIRESneo-hsGCβ1 simultaneously using FUGENE reagent. Clones that stably express both subunits were selected with hygromycin and neomycin for ˜2 weeks. Clone #7 was chosen for the assay and was designated CHO-K1/sGC. CHO-K1/sGC cells were maintained in F-K12 medium containing 10% heat-inactivated Fetal Bovine Serum (FBS), 100 μg/mL penicillin/streptomycin, 0.5 mg/mL hygromycin and 0.25 mg/mL G418. The cells were then cryopreserved in LN2. On the day of the assay, cells thawed and resuspended in EBSS Assay Buffer (Sigma, E3024) supplemented with 5 mM MgCl2, 10 mM HEPES (4-(2-hydroxyethyl)piperazine-1-ethanesulfonic acid) and 0.05% BSA (bovine serum albumin) (EAB) and cell density was then adjusted to 4×10^5/mL with EAB. IBMX (3-isobutyl-1-methylxanthin, 0.5 mM) was added to inhibit degradation of cGMP. Compounds were diluted from DMSO stock solutions and added to the assay at a final DMSO concentration of 2.5%. Cells were incubated with compounds in the presence and absence of 1 μM of Diethylenetriamine/nitric oxide adduct (DETA-NO; Sigma, 17018) for 1 hr at 37° C. At the end of the incubation period, the reaction was terminated and the cells were lysed with the detection reagents from Cisbio Kits. The level of intracellular cGMP was determined using an HTRF-based assay kit (CisBio, 62GM2PEC), which detects the displacement of a fluorescence labeled cGMP from its specific antibody. The cGMP produced by test compounds was directly compared to the maximum cGMP production (this value was set to equal 100% activation.) of the published sGC-HDA Compound A:
# [drawing 298] (Example 1 in WO 2010/065275, published Jun. 10, 2010). The test compounds' activities were then expressed as a percentage of Compound A, the standard in every experiment. This percent activation was calculated either in the presence or absence of DETA-NO which was then plotted. IP and maximum fold induction was derived using ADA analysis software for 4P fit.
row,Emax [%],SMILES
1,140,"Nc1nc(-c2cn3ncnc3c(CCC(F)(F)C(F)(F)F)n2)nc2c1C(c1ccc(F)c(F)c1)(C1CC1)C(=O)N2 (centres unmarked) [Example 6A, 4-amino-5-cyclopropyl-5-(3,4-difluorophenyl)-2-(8-(3,3,4,4,4-pentafluorobutyl)-[1,2,4]triazolo[1,5-a]pyrazin-6-yl)-5H-pyrrolo[2,3-d]pyrimidin-6(7H)-one]"
2,137,"CC1(c2ccc(Cl)cc2)C(=O)Nc2nc(-c3cn4ncnc4c(CCC(F)(F)C(F)(F)F)n3)nc(N)c21 (centres unmarked) [Example 10A, 4-amino-5-(4-chlorophenyl)-5-methyl-2-(8-(3,3,4,4,4-pentafluorobutyl)-[1,2,4]triazolo[1,5-a]pyrazin-6-yl)-5H-pyrrolo[2,3-d]pyrimidin-6(7H)-one]"
3,90,"CC1(c2cccc(F)c2)C(=O)Nc2nc(-c3cn4ncnc4c(CCC(F)(F)C(F)(F)F)n3)nc(N)c21 (centres unmarked) [Example 14B, 4-amino-5-(3-fluorophenyl)-5-methyl-2-(8-(3,3,4,4,4-pentafluorobutyl)-[1,2,4]triazolo[1,5-a]pyrazin-6-yl)-5H-pyrrolo[2,3-d]pyrimidin-6(7H)-one]"
4,139,"Nc1nc(-c2cn3ncnc3c(CCC(F)(F)C(F)(F)F)n2)nc2c1C(c1ccc(C(F)(F)F)cn1)(C1CC1)C(=O)N2 (centres unmarked) [Example 15A, 4-amino-5-cyclopropyl-2-(8-(3,3,4,4,4-pentafluorobutyl)-[1,2,4]triazolo[1,5-a]pyrazin-6-yl)-5-(5-(trifluoromethyl)pyridin-2-yl)-5H-pyrrolo[2,3-d]pyrimidin-6(7H)-one]"
5,71,"Cc1ccc(C2(C)C(=O)Nc3nc(-c4cn5ncnc5c(CCC(F)(F)C(F)(F)F)n4)nc(N)c32)nc1 (centres unmarked) [Example 19B, 4-amino-5-methyl-5-(5-methylpyridin-2-yl)-2-(8-(3,3,4,4,4-pentafluorobutyl)-[1,2,4]triazolo[1,5-a]pyrazin-6-yl)-5H-pyrrolo[2,3-d]pyrimidin-6(7H)-one]"
6,130,"CC1(c2ccc(F)cn2)C(=O)Nc2nc(-c3cn4ncnc4c(CCCC(F)(F)F)n3)nc(N)c21 (centres unmarked) [Example 22B, 4-amino-5-(5-fluoropyridin-2-yl)-5-methyl-2-(8-(4,4,4-trifluorobutyl)-[1,2,4]triazolo[1,5-a]pyrazin-6-yl)-5H-pyrrolo[2,3-d]pyrimidin-6(7H)-one]"
7,163,"C[C@@]1(c2ccc(F)cc2)C(=O)Nc2nc(-c3cn4ncnc4c(CCCC(F)(F)F)n3)nc(N)c21 [Example 23A, (S)-4-amino-5-(4-fluorophenyl)-5-methyl-2-(8-(4,4,4-trifluorobutyl)-[1,2,4]triazolo[1,5-a]pyrazin-6-yl)-5,7-dihydro-6H-pyrrolo[2,3-d]pyrimidin-6-one]"
8,133,"CC1(c2ccc(C(F)(F)F)cc2)C(=O)Nc2nc(-c3cn4ncnc4c(CCCC(F)(F)F)n3)nc(N)c21 (centres unmarked) [Example 24B, 4-amino-5-methyl-2-(8-(4,4,4-trifluorobutyl)-[1,2,4]triazolo[1,5-a]pyrazin-6-yl)-5-(4-(trifluoromethyl)phenyl)-5H-pyrrolo[2,3-d]pyrimidin-6(7H)-one]"
9,162,"CC1(c2ccc(Cl)cn2)C(=O)Nc2nc(-c3cn4ncnc4c(CCCC(F)(F)F)n3)nc(N)c21 (centres unmarked) [Example 26A, 4-amino-5-(5-chloropyridin-2-yl)-5-methyl-2-(8-(4,4,4-trifluorobutyl)-[1,2,4]triazolo[1,5-a]pyrazin-6-yl)-5H-pyrrolo[2,3-d]pyrimidin-6(7H)-one]"
10,178,"Nc1nc(-c2cn3ncnc3c(CCCC(F)(F)F)n2)nc2c1C(c1ccc(Cl)cn1)(C1CC1)C(=O)N2 (centres unmarked) [Example 27A, 4-amino-5-(5-chloropyridin-2-yl)-5-cyclopropyl-2-(8-(4,4,4-trifluorobutyl)-[1,2,4]triazolo[1,5-a]pyrazin-6-yl)-5H-pyrrolo[2,3-d]pyrimidin-6(7H)-one]"
11,171,"CC1(c2ccc(Cl)c(F)c2)C(=O)Nc2nc(-c3cn4ncnc4c(CCCC(F)(F)F)n3)nc(N)c21 (centres unmarked) [Example 28B, 4-amino-5-(4-chloro-3-fluorophenyl)-5-methyl-2-(8-(4,4,4-trifluorobutyl)-[1,2,4]triazolo[1,5-a]pyrazin-6-yl)-5H-pyrrolo[2,3-d]pyrimidin-6(7H)-one]"
12,101,"CC1(c2ccc(Cl)cc2)C(=O)Nc2nc(-c3cn4ncnc4c(CCCC(F)(F)F)n3)nc(N)c21 (centres unmarked) [Example 29A, 4-amino-5-(4-chlorophenyl)-5-methyl-2-(8-(4,4,4-trifluorobutyl)-[1,2,4]triazolo[1,5-a]pyrazin-6-yl)-5H-pyrrolo[2,3-d]pyrimidin-6(7H)-one]"
13,117,"Nc1nc(-c2cn3ncnc3c(CCCC(F)(F)F)n2)nc2c1C(c1ccc(F)cc1)(C1CC1)C(=O)N2 (centres unmarked) [Example 30B, 4-amino-5-cyclopropyl-5-(4-fluorophenyl)-2-(8-(4,4,4-trifluorobutyl)-[1,2,4]triazolo[1,5-a]pyrazin-6-yl)-5H-pyrrolo[2,3-d]pyrimidin-6(7H)-one]"
14,104,"Nc1nc(-c2cn3ncnc3c(CCCC(F)(F)F)n2)nc2c1C(c1ccc(Cl)cc1)(C1CC1)C(=O)N2 (centres unmarked) [Example 31B, 4-amino-5-(4-chlorophenyl)-5-cyclopropyl-2-(8-(4,4,4-trifluorobutyl)-[1,2,4]triazolo[1,5-a]pyrazin-6-yl)-5H-pyrrolo[2,3-d]pyrimidin-6(7H)-one]"
15,144,"Nc1nc(-c2cn3ncnc3c(CCCC(F)(F)F)n2)nc2c1C(c1ccc(F)c(F)c1)(C1CC1)C(=O)N2 (centres unmarked) [Example 32A, 4-amino-5-cyclopropyl-5-(3,4-difluorophenyl)-2-(8-(4,4,4-trifluorobutyl)-[1,2,4]triazolo[1,5-a]pyrazin-6-yl)-5H-pyrrolo[2,3-d]pyrimidin-6(7H)-one]"
16,164,"Nc1nc(-c2cn3ncnc3c(CCCC(F)(F)F)n2)nc2c1C(c1ccc(C(F)(F)F)cc1)(C1CC1)C(=O)N2 (centres unmarked) [Example 35A, 4-amino-5-cyclopropyl-2-(8-(4,4,4-trifluorobutyl)-[1,2,4]triazolo[1,5-a]pyrazin-6-yl)-5-(4-(trifluoromethyl)phenyl)-5H-pyrrolo[2,3-d]pyrimidin-6(7H)-one]"
17,112,"CC1(c2ccccc2)C(=O)Nc2nc(-c3cn4ncnc4c(CCCC(F)(F)F)n3)nc(N)c21 (centres unmarked) [Example 37B, 4-amino-5-methyl-5-phenyl-2-(8-(4,4,4-trifluorobutyl)-[1,2,4]triazolo[1,5-a]pyrazin-6-yl)-5H-pyrrolo[2,3-d]pyrimidin-6(7H)-one]"
